{"source": "patent US11236102B2", "about": "“Oxabicycloheptane prodrugs” (Lixte Biotechnology, Inc., priority 2015, dated 2022)", "assay": "Pharmacokinetic study of 153 (iv, po) in SD rats: 153 and endothal in plasma, liver, brain", "type": "in vivo, SD rats", "protocol": "The blood, liver and brain tissue samples were collected at predetermined times from rats. […] Compound were diluted shortly before use in 4% sodium bicarbonate for sterile injection (this is the standard pediatric solution of NaHCO3 with a pH of about 8.5).\nCompound 153 was freshly prepared by diluting the drugs shortly before use in 4% sodium bicarbonate for sterile injection (this is the standard pediatric solution of NaHCO3 with a pH of about 8.5). The final concentrations of 153 solutions were 0.25 mg/mL. The 153 solutions were administered via iv or po route at dose volume of 5 ml/kg according to the latest body weight. Compound 157 was freshly prepared by diluting the drugs shortly before use in 4% sodium bicarbonate for sterile injection (this is the standard pediatric solution of NaHCO3 with a pH of about 8.5). The final concentrations of […] solutions were 0.3 mg/mL. The 157 solutions were administered via iv or po route at dose volume of 5 ml/kg according to the latest body weight.\nTwelve (12) female SD rats per group were dosed by iv with 153 or 157. The rats were fasted overnight prior to dosing, with free access to water. Foods were withheld for 2 hours post-dose. Blood, liver and brain tissue samples in two animals each group were collected at each time point, within 10% of the scheduled time for each time point. Two extra animals were used for analytic method development.\nBlood (>0.3 mL) were collected via aorta abdominalis in anaesthetic animals into tubes containing heparin at 15 min, 1, 2, 6, 10 and 24 hours after iv administration. Liver and brain tissues were collected immediately after animal death. The liver and brain tissues were excised and rinsed with cold saline to avoid blood residual. Upon collection, each sample was placed on ice and the blood samples were subsequently centrifuged (4° C., 11000 rpm, 5 min) to separate plasma.\nThe obtained plasma, liver and brain tissue samples were stored at −70° C. until LC-MS/MS analysis.\nTwo (2) female SD rats per group were dosed by po with 153 or 157. The rats were fasted overnight prior to dosing, with free access to water. Foods were withheld for 2 hours post-dose. Blood samples (>0.3 mL) were collected via aorta abdominalis in anaesthetic animals into tubes containing heparin at 30 min, 1, 2, 6, 10 and 24 hours after po administration.\nTo each sample, 20 μL IS-D (for blank samples, 20 μL acetonitrile:water (1:1) was added) and 300 μl acetonitrile was added. The sample mixture was vortexed for approximately 3 min. After centrifugation at 10000 rpm for 5 min at 4° C., 100 μL of the upper layer was transferred to a new tube and added 200 μL 0.4% formic acid in water (pH 6.0). The mixture was vortexed for approximately 3 min before injected onto the LC/MS/MS system for analysis.\nOn the day of the assay, the frozen liver and brain samples were thawed unassisted at room temperature. An about 200 mg weighed sample of each thawed tissue was placed into a plastic tube with water (0.6 mL) to facilitate homogenization. Tissue processing was conducted using a homogenizer for approximately 1 min, 200 μl homogenate was transferred into a fresh Eppendorf tube. To each tube, 50 μL IS-D was added and mixed. Then 600 ul acetonitrile was added and the sample mixture was vortexed for approximately 3 min. After centrifugation at 10000 rpm for 5 min at 4° C., 400 μL of the upper layer was transferred to a new tube and evaporate the supernatant to dryness at 35° C. Reconstitute the residue with 200 μL of 0.4% formic acid in water (pH6.0), and vortex for 3 min, submit for LC-MS/MS analysis.\nFrozen unknown plasma samples were completely thawed at room temperature and vortexed thoroughly. With a pipette, 50 μL of plasma was transferred into a 2.0 mL Eppendorf tube. 50 μL of 0.1N HCl and 800 μL ethyl acetate were added into each sample. The sample mixture was vortexed for approximately 3 min.", "key": {"[1]": {"conditions": "iv 1.25 mg/kg, 0.25 hr, individual rats, 1.25 mg/kg"}, "[2]": {"conditions": "iv 1.25 mg/kg, 1 hr, individual rats, 1.25 mg/kg"}, "[3]": {"conditions": "iv 1.25 mg/kg, 2 hr, individual rats, 1.25 mg/kg"}, "[4]": {"conditions": "plasma, 153 1.25 mg/kg PO, individual rats, 1.25 mg/kg"}}, "note": "Values joined by “and” are separate entries in the source; they are usually repeats but may differ in a detail not shown here. Equal entries are not always repeated. Marks after values point to notes of the source that are not given here.", "data": [{"smiles": "CCCOC(=O)C1C2CCC(O2)C1C(=O)N1CCN(C)CC1", "note": "(stereo not shown) [Compound 153]", "values": [{"measurement": "153 plasma concentration", "setting": "PO 1.25 mg/kg, 0.25 hr, individual rats, 1.25 mg/kg", "result": 652, "unit": "ng/mL"}, {"measurement": "153 plasma concentration", "setting": "PO 1.25 mg/kg, 1 hr, individual rats, 1.25 mg/kg", "result": 121, "unit": "ng/mL"}, {"measurement": "MRT", "setting": "female, SD, rat, in vivo, iv, 1.25 mg/kg, MRT (0 t)", "result": 40, "unit": "min"}, {"measurement": "MRT (0 t)", "setting": "female, SD, rat, in vivo, po, 1.25 mg/kg", "result": 60.6, "unit": "min"}, {"measurement": "MRT", "setting": "female, SD, rat, in vivo, po, 1.25 mg/kg, MRT (0 t)", "result": 59.2, "unit": "min"}, {"measurement": "MRT", "setting": "female, SD, rat, in vivo, plasma, 153 1.25 mg/kg PO, individual rats, read-out: MRT (0 t)", "result": 62.4, "unit": "min"}, {"measurement": "Cmax", "setting": "female, Sprague-Dawley, rat, in vivo, iv, 1.25 mg/kg", "result": 762, "unit": "ng/g"}, {"measurement": "concentration at 2 hr", "setting": "female, Sprague-Dawley, rat, in vivo, po, 1.25 mg/kg", "result": 0.042, "unit": "µg/mL"}, {"measurement": "concentration at 0.25 hr", "setting": "female, Sprague-Dawley, rat, in vivo, po, 1.25 mg/kg, PO 1.25 mg/kg, 0.25 hr, individual rats", "result": 0.872, "unit": "µg/mL"}, {"measurement": "concentration at 0.25 hr", "setting": "female, Sprague-Dawley, rat, in vivo, po, 1.25 mg/kg, PO 1.25 mg/kg, 0.25 hr, mean", "result": 0.762, "unit": "µg/mL"}, {"measurement": "concentration at 1 hr", "setting": "female, Sprague-Dawley, rat, in vivo, po, 1.25 mg/kg, PO 1.25 mg/kg, 1 hr, individual rats", "result": 0.131, "unit": "µg/mL"}, {"measurement": "concentration at 1 hr", "setting": "female, Sprague-Dawley, rat, in vivo, po, 1.25 mg/kg, PO 1.25 mg/kg, 1 hr, mean", "result": 0.126, "unit": "µg/mL"}, {"measurement": "concentration at 2 hr", "setting": "female, Sprague-Dawley, rat, in vivo, po, 1.25 mg/kg, PO 1.25 mg/kg, 2 hr, individual rats, read-out: 153 plasma concentration", "result": 0.0412, "unit": "µg/mL"}, {"measurement": "concentration at 2 hr", "setting": "female, Sprague-Dawley, rat, in vivo, po, 1.25 mg/kg, PO 1.25 mg/kg, 2 hr, mean, read-out: 153 plasma concentration", "result": 0.0416, "unit": "µg/mL"}, {"measurement": "153 brain concentration", "setting": "[1]", "result": "45 ng/g and 40.3 ng/g"}, {"measurement": "153 liver concentration", "setting": "[1]", "result": "872 ng/g and 652 ng/g"}, {"measurement": "153 plasma concentration", "setting": "[1]", "result": "563 ng/mL and 550 ng/mL"}, {"measurement": "153 brain concentration", "setting": "iv 1.25 mg/kg, 0.25 hr, mean", "result": 42.7, "unit": "ng/g"}, {"measurement": "153 liver concentration", "setting": "iv 1.25 mg/kg, 0.25 hr, mean", "result": 762, "unit": "ng/g"}, {"measurement": "153 plasma concentration", "setting": "iv 1.25 mg/kg, 0.25 hr, mean", "result": 557, "unit": "ng/mL"}, {"measurement": "153 brain concentration", "setting": "[2]", "result": "13.9 ng/g and 14.3 ng/g"}, {"measurement": "153 liver concentration", "setting": "[2]", "result": "131 ng/g and 121 ng/g"}, {"measurement": "153 plasma concentration", "setting": "[2]", "result": "58 ng/mL and 51.4 ng/mL"}, {"measurement": "153 brain concentration", "setting": "iv 1.25 mg/kg, 1 hr, mean", "result": 14.1, "unit": "ng/g"}, {"measurement": "153 liver concentration", "setting": "iv 1.25 mg/kg, 1 hr, mean", "result": 126, "unit": "ng/g"}, {"measurement": "153 plasma concentration", "setting": "iv 1.25 mg/kg, 1 hr, mean", "result": 54.7, "unit": "ng/mL"}, {"measurement": "153 brain concentration", "setting": "[3]", "result": "4.05 ng/g and 4.75 ng/g"}, {"measurement": "153 liver concentration", "setting": "[3]", "result": "42 ng/g and 41.2 ng/g"}, {"measurement": "153 plasma concentration", "setting": "[3]", "result": "14.8 ng/mL and 13 ng/mL"}, {"measurement": "153 brain concentration", "setting": "iv 1.25 mg/kg, 2 hr, mean", "result": 4.4, "unit": "ng/g"}, {"measurement": "153 liver concentration", "setting": "iv 1.25 mg/kg, 2 hr, mean", "result": 41.6, "unit": "ng/g"}, {"measurement": "153 plasma concentration", "setting": "iv 1.25 mg/kg, 2 hr, mean", "result": 13.9, "unit": "ng/mL"}, {"measurement": "153 plasma concentration", "setting": "iv 1.25 mg/kg, 6 hr, individual rats, 1.25 mg/kg", "result": "1.04 ng/mL and 1.02 ng/mL"}, {"measurement": "153 plasma concentration", "setting": "iv 1.25 mg/kg, 6 hr, mean", "result": 1.03, "unit": "ng/mL"}, {"measurement": "153 plasma concentration", "setting": "iv 1.25 mg/kg, 10 hr, individual rat, abnormal, not included in the calculation", "result": "9.42* ng/mL"}, {"measurement": "T1/2 in brain", "setting": "iv administration of 153", "result": 35.8, "unit": "min"}, {"measurement": "T1/2 in liver", "setting": "iv administration of 153", "result": 37.6, "unit": "min"}, {"measurement": "Cmax", "setting": "plasma, 153 1.25 mg/kg IV, individual rats, 1.25 mg/kg", "result": 0.563, "unit": "µg/mL"}, {"measurement": "AUC", "setting": "[4]", "result": 0.163, "unit": "µg·h/mL"}, {"measurement": "AUC0-∞", "setting": "[4]", "result": 0.163, "unit": "µg·h/mL"}, {"measurement": "AUClast in brain", "setting": "rat, in vivo, iv", "result": 39.4, "unit": "ng·h/g"}, {"measurement": "AUClast in liver", "setting": "rat, in vivo, iv", "result": 500, "unit": "ng·h/g"}, {"measurement": "oral availability", "setting": "rat, in vivo, po, 1.25 mg/kg", "result": "orally available"}]}]}
